How the values were obtained:
HeLa cells = assay: Photostability in labeled HeLa cells; type: cell-based, human; design: dose or concentration left out as unconfirmed; conditions: ACCu2-labeled HeLa cells, fs-pulses for 60 minutes
Description: The photostability of ACCu2 was determined by monitoring the change in TP excited fluorescence (TPEF) intensity from ACCu2 ([…])-labeled HeLa cells. […] This confirms that ACCu2 according to the present disclosure has high photostability and can measure the copper(II) ion concentration in living cells with minimum interference.

[1] = Selectivity of ACCu2 for copper(II) ion against competing metal ions; conditions: ACCu2 3 μM; Na+, K+, Ca2+, Mg2+ 1 mM; transition metal ions 500 μM; then 200 μM Cu2+; EtOH/HEPES (9/1, pH 7.0)
Description: The black bars show the result obtained in the presence of alkali metal and alkaline earth metal ions Na^+, K^+, Ca^2+ and Mg^2+ (1 mM) and transition metal ions Mn^2+, Fe^2+, Co^2+, Ni^2+, Zn^2+, Pd^2+, Cd^2+ and […] in EtOH/HEPES (9/1 v/v, pH 7.0), and the white bars show the result obtained after further addition of 200 μM Cu^2+.

[2] = Two-photon action cross section; type: physicochemical; conditions: at 880 nm, EtOH/HEPES (9/1 v/v, pH 7.0)
Description: Referring to FIG. 4(a), the Φδmax value of ACCu2 in EtOH/HEPES (9/1 v/v, pH 7.0) buffer was 32 GM at 880 nm, while those for FL and IR were 32 GM at 880 nm and 46 GM at 750 nm. The lower Φδmax value of ACCu2 at 750 nm than that of IR is because of decreased fluorescence resonance energy transfer (FRET) from IR to FL and it allows to obtain bright TPM images of cells and ^.tissues labeled with ACCu2.
The two-photon cross section (δ) was determined by the fe tosecond (fs) fluorescence measurement technique described in the literature (S. K. Lee, W. J. Yang, J. J. Choi, C. H. Kim, S.-J. Jeon, B. R. Cho, Org. Lett 2005, 7, 323-326.), ACCu2 was dissolved in 20 mM HEPES buffer (pH 7.0) to a concentration of 3.0×10^−6 M and then two-photon induced fluorescence intensity was measured at 740-940 nm using rhodamine 6G as a reference, whose two-photon property has been well characterized. The intensities of two-photon induced fluorescence of the reference and the sample were determined at the same excitation wavelength.
The two-photon cross section can be calculated from equation (3). δ=δr(SsΦrΦrcr)/(SrΦsΦscs) Equation (3)
wherein s and r stand for the sample, i.e., ACCu2, and the reference, respectively. S denotes the intensity of the signal collected using a CCD detector, Φ is the fluorescence quantum yield, Φ is the overall fluorescence collection efficiency of the experimental apparatus, c is the number density of molecules in solution, and δr is the two-photon cross section of the reference molecule.

[3] = pH dependence of Ired/Iblue ratio; type: physicochemical; conditions: 3 μM ACCu2, 200 μM copper(II) ion, excitation 365 nm
Source text: The excitation wavelength was 365 nm. […] The increase in the Ired/Iblue ratio at pH<6 can be attributed to the protonation of the nitrogen atom in the pyridine moiety as shown in [Chemical Formula 19]. On the other hand, the increase in the Ired/Iblue ratio at pH>7.0 can be attributed to the decreased copper(II) ion concentration due to the formation of Cu(OH)2. This outcome is different from that reported for the existing one-photon probe.

With `COCCOCCOCCOc1ccc2c(ccc3cc(C(=O)N4CCN(C(=O)c5ccc(CNC(=O)c6cc7cc8ccc(N(C)C)cc8cc7oc6=O)nc5)CC4)c(=O)oc32)c1` [ACCu2] the “photostability: TPEF intensity after continuous radiation” value (HeLa cells) was “remained nearly the same”, the “selectivity for Cu2+ in the presence of competing metal ions” value [1] was “uninterrupted in the presence of the alkali metal, alkaline earth metal or transition metal ions” and the “Φδmax (two-photon action cross section)” value [2] was 32 GM. The “pH at which Ired/Iblue ratio shows a minimum” value [3] was 6-7.
